Data on 20 compounds can be found in patent publication US8148391B2 (Cephalon, Inc., priority 2006, dated 2012).

pIC50: −log10 of the molar value. Like-named read-outs stand apart in the source and are kept apart here. Bounds are passed on as bounds.

Test [1] has as its target T1, baculovirus-expressed ALK (Homo sapiens, UniProt Q9UM73).
T1 construct: host or cells: baculovirus expression system
As to the kind of experiment: ALK Kinase Assay (ELISA-type, time-resolved fluorescence). The class given is biochemical. The procedure: (§1) Briefly, each 96-well plate was coated with 100 μL/well of 10 μg/mL substrate (phospholipase C-γ) in Tris-buffered saline (TBS). […] The reaction was initiated by adding enzyme (30 ng/ml ALK) and was allowed to proceed at 37° C. for 15 minutes. Detection of the phosphorylated product was performed by adding 100 μl/well of Eu-N1 labeled PT66 antibody (Perkin Elmer # AD0041).
(§2) Data analysis was performed using ActivityBase (IDBS, Guilford, UK). IC50 values were calculated by plotting percent inhibition versus log10 of the concentration of compound and fitting to the nonlinear regression sigmoidal dose-response (variable slope) equation in XLFit (IDBS, Guilford, UK).
A general note: ELISA stands for enzyme-linked immunosorbent assay.

Test [2] has as its target T2, c-Met (cytoplasmic domain) (Homo sapiens, UniProt P08581).
T2 construct: 10 ng/mL c-Met (cytoplasmic domain, Invitrogen Corporation #PV3143); purchased Invitrogen Corporation PV3143
As to the kind of experiment: c-Met Kinase Assay (same methods as for ALK, with modifications). The class given is biochemical. The procedure:
as §1, §2
Reactions were initiated with 10 ng/mL c-Met (cytoplasmic domain, Invitrogen Corporation #PV3143).

[3] abbreviates: 1 μM ATP (Km level), 30 ng/ml ALK, 37° C., 15 minutes, read-out: ALK Activity (ALK kinase inhibition, IC50 class).
Setting [4] is: 1 μM ATP (Km level), 10 ng/mL c-Met, read-out: cMet Activity (c-Met kinase inhibition, IC50 class).
Setting [5] is: ALK kinase inhibition, 1 μM ATP, read-out: ALK Activity.
[6] abbreviates: c-Met kinase inhibition, 1 μM ATP, read-out: cMet Activity.
Setting [7] is: ALK kinase inhibition, 1 μM ATP (Km level), read-out: ALK Activity.
Where [8] appears, read: c-Met kinase inhibition, 1 μM ATP (Km level), read-out: cMet Activity.
Setting [9] is: 1 μM ATP (Km level), read-out: cMet Activity (c-Met Kinase Inhibition, IC50).

T2 sequence (P08581 956-1390 limits assumed): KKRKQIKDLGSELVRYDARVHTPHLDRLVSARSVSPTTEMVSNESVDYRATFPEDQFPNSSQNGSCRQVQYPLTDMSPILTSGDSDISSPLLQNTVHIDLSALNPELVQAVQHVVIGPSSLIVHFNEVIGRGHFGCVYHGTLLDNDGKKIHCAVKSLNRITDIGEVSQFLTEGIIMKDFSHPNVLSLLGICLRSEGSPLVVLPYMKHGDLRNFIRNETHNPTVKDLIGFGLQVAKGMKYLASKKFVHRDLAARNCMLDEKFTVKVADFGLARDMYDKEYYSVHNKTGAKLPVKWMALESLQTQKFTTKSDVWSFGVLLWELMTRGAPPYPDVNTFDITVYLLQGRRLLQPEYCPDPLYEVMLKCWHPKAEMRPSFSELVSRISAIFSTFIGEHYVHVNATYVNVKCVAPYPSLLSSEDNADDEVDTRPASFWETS
T1 sequence (Q9UM73 19-1620): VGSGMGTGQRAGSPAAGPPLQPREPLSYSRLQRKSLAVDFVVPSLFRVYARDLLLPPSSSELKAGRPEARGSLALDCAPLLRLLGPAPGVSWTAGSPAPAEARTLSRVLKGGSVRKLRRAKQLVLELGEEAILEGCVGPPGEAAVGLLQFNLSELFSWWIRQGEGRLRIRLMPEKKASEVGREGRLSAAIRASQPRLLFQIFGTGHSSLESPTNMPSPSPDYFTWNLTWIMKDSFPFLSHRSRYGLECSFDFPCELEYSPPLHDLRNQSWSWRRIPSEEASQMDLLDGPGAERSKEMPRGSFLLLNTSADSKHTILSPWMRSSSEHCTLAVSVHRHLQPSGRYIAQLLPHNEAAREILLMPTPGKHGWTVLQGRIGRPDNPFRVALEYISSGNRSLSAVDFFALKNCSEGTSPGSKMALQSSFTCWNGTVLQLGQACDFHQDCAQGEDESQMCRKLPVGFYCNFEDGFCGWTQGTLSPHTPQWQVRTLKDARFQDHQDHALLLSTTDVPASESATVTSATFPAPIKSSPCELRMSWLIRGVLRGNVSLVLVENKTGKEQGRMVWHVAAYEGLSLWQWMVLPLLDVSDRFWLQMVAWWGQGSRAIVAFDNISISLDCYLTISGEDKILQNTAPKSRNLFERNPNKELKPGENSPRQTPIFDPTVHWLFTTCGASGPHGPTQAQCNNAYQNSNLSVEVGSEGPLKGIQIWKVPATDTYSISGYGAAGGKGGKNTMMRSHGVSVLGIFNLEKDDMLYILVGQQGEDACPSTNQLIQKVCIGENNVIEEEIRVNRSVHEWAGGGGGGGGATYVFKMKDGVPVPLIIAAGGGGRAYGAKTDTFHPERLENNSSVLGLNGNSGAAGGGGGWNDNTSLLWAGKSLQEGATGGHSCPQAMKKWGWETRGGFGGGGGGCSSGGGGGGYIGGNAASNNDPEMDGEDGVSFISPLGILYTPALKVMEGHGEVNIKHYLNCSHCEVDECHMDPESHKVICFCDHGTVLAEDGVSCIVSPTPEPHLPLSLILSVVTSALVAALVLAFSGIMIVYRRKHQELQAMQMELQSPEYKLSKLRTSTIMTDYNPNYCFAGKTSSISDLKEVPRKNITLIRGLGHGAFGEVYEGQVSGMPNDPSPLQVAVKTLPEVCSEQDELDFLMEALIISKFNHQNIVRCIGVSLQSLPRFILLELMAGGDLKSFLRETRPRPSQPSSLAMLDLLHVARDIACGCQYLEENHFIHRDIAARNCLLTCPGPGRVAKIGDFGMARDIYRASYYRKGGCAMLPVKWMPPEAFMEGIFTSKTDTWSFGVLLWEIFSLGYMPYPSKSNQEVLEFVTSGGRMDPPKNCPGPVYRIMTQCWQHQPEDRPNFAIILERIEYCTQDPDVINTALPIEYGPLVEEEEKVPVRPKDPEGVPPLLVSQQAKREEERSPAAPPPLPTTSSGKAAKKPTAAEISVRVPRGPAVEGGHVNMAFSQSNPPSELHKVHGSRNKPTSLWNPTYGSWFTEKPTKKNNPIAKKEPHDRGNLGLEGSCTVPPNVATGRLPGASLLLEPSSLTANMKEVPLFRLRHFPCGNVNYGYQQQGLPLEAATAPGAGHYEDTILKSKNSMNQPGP

As for “1-[5-Chloro-2-(3-dimethylcarbamoylmethyl-8-methoxy-2,3,4,5-tetrahydro-1H-benzo[d]azepin-7-ylamino)-pyrimidin-4-ylamino]-cyclopentanecarboxylic acid methylamide [Example 1203]”, the pIC50 in test [1] (setting [3]) was 6.00 to 7.00; in test [2] (setting [4]), less than 5.00. In the case of “2-[2-(8-Amino-4H,6H-3,5,10b-triaza-benzo[e]azulen-5-yl)-5-chloro-pyrimidin-4-ylamino]-3-fluoro-N-methyl-benzamide [Example 1467]”, the pIC50 in test [1] (setting [5]) and in test [2] (setting [6]) was 5.00 to 6.00 each time. Take “2-[5-Chloro-2-(1,4-dimethyl-5-oxo-2,3,4,5-tetrahydro-1H-benzo[e][1,4]diazepin-8-ylamino)-pyrimidin-4-ylamino]-N-methylbenzamide [Example 416]”: the pIC50 in test [1] (setting [7]) and in test [2] (setting [8]) was more than 7.00 throughout. In the case of “2-[5-Chloro-2-(1-methyl-1,2,3,5-tetrahydro-benzo[e][1,4]oxazepin-7-ylamino)-pyrimidin-4-ylamino]-N-(2-hydroxy-ethyl)-benzamide and 2-{2-[5-Chloro-2-(1-methyl-1,2,3,5-tetrahydro-benzo[e][1,4]oxazepin-7-ylamino)-pyrimidin-4-ylamino]-phenyl}-oxazolidin-2-ol [Example 16]”, the pIC50 in test [1] (setting [7]) and in test [2] (setting [8]) was more than 7.00 in each case. Regarding “2-[5-Chloro-2-(2-methyl-3-oxo-2,3,4,5-tetrahydro-1H-benzo[c]azepin-8-ylamino)-pyrimidin-4-ylamino]-N-methyl-benzamide and 2-[5-chloro-2-(2-methyl-3-oxo-2,3-dihydro-1H-benzo[c]azepin-8-ylamino)-pyrimidin-4-ylamino]-N-methyl-benzamide [Example 1798]”, the pIC50 in test [1] (setting [5]) and in test [2] (setting [6]) was more than 7.00 each time. With “2-[5-Chloro-2-(3-methyl-4-oxo-2,3,4,5-tetrahydro-1H-benzo[d]azepin-7-ylamino)-pyrimidin-4-ylamino]-3,5,N-trimethyl-benzamide [Example 1818]”, the figures for the pIC50 in test [1] (setting [5]) and in test [2] (setting [6]) were 5.00 to 6.00 and 6.00 to 7.00, respectively.

In the case of “2-[5-Chloro-2-(4-oxo-1,2,3,4,5,6-hexahydro-benzo[b][1,5]diazocin-8-ylamino)-pyrimidin-4-ylamino]-N-methyl-benzenesulfonamide [Example 1304]”, the results for the pIC50 in test [1] (setting [3]) and in test [2] (setting [4]) were more than 7.00 and 6.00 to 7.00, respectively. Take `COCCN1CCc2cc(Nc3ncc(Cl)c(Nc4ccc(N5CCOCC5)cc4OC)n3)c(OC)cc2CC1` [Example 113, 5-Chloro-N*2*-[8-methoxy-3-(2-methoxy-ethyl)-2,3,4,5-tetrahydro-1H-benzo[d]azepin-7-yl]-N*4*-(2-methoxy-4-morpholin-4-yl-phenyl)-pyrimidine-2,4-diamine]: in test [2] (setting [8]), the pIC50 was less than 5.00.

For `CCN1C(=O)CCCc2c1ccc(Nc1ncc(Cl)c(Nc3ccc(N4CCOCC4)cc3OC)n1)c2OC` [Example 119, 7-[5-Chloro-4-(2-methoxy-4-morpholin-4-yl-phenylamino)-pyrimidin-2-ylamino]-1-ethyl-6-methoxy-1,3,4,5-tetrahydro-benzo[b]azepin-2-one], the pIC50 in test [2] (setting [8]) is less than 5.00. As to `COc1cc2c(cc1Nc1ncc(Cl)c(Nc3ccc(N4CCOCC4)cc3OC)n1)CCN(CC(=O)N(C)C)CC2` [Example 261, 2-{7-[5-Chloro-4-(2-methoxy-4-morpholin-4-yl-phenylamino)-pyrimidin-2-ylamino]-8-methoxy-1,2,4,5-tetrahydro-benzo[d]azepin-3-yl}-N,N-dimethyl-acetamide], the pIC50 in test [2] (cMet Activity, c-Met kinase inhibition, 1 μM ATP (Km level)) was less than 5.00. As for `COc1cc2c(cc1Nc1ncc(Cl)c(Nc3ccc(N4CCOCC4)cc3OC)n1)CCN(CC(F)F)CC2` [Example 761, 5-Chloro-N*2*-[3-(2,2-difluoro-ethyl)-8-methoxy-2,3,4,5-tetrahydro-1H-benzo[d]azepin-7-yl]-N*4*-(2-methoxy-4-morpholin-4-yl-phenyl)-pyrimidine-2,4-diamine], the pIC50 in test [2] (setting [9]) was less than 5.00. `COc1ccc(Nc2nc(Nc3cc4c(cc3OC)CCN(CC(=O)N(C)C)CC4)ncc2Cl)c(OC)c1` [Example 812, 2-{7-[5-Chloro-4-(2,4-dimethoxy-phenylamino)-pyrimidin-2-ylamino]-8-methoxy-1,2,4,5-tetrahydro-benzo[d]azepin-3-yl}-N,N-dimethyl-acetamide]: the pIC50 in test [2] (setting [9]) is less than 5.00. Turning to `CNC(=O)CN1CCc2cc(Nc3ncc(Cl)c(Nc4ccc(N5CCOCC5)cc4OC)n3)c(OC)cc2CC1` [Example 1113, 2-{7-[5-Chloro-4-(2-methoxy-4-morpholin-4-yl-phenylamino)-pyrimidin-2-ylamino]-8-methoxy-1,2,4,5-tetrahydro-benzo[d]azepin-3-yl}-N-methyl-acetamide], the pIC50 in test [2] (setting [4]) was less than 5.00. Consider `COc1cc2c(cc1Nc1ncc(Cl)c(Nc3ccc(N4CCOCC4)cc3OC)n1)CCN(CCS(C)(=O)=O)CC2` [Example 1120, 5-Chloro-N*2*-[3-(2-methanesulfonyl-ethyl)-8-methoxy-2,3,4,5-tetrahydro-1H-benzo[d]azepin-7-yl]-N*4*-(2-methoxy-4-morpholin-4-yl-phenyl)-pyrimidine-2,4-diamine], for which the pIC50 in test [2] (setting [4]) was less than 5.00. Same read-out and setting: the same measure for `COc1cc2c(cc1Nc1ncc(Cl)c(Nc3ccccc3OC)n1)CCN(CC(=O)N(C)C)CC2` [Example 1130, 2-{7-[5-Chloro-4-(2-methoxy-phenylamino)-pyrimidin-2-ylamino]-8-methoxy-1,2,4,5-tetrahydro-benzo[d]azepin-3-yl}-N,N-dimethyl-acetamide]: less than 5.00; for `COc1cc2c(cc1Nc1ncc(Cl)c(Nc3ccc(C(N)=O)cc3OC)n1)CCN(CC(=O)N(C)C)CC2` [Example 1146, 4-[5-Chloro-2-(3-dimethylcarbamoylmethyl-8-methoxy-2,3,4,5-tetrahydro-1H-benzo[d]azepin-7-ylamino)-pyrimidin-4-ylamino]-3-methoxy-benzamide]: less than 5.00; for `COc1cc2c(cc1Nc1ncc(Cl)c(Nc3ccc(N4CCOCC4)cc3)n1)CCN(CC(=O)N(C)C)CC2` [Example 1150, 2-{7-[5-Chloro-4-(4-morpholin-4-yl-phenylamino)-pyrimidin-2-ylamino]-8-methoxy-1,2,4,5-tetrahydro-benzo[d]azepin-3-yl}-N,N-dimethyl-acetamide]: less than 5.00.

As for `COc1cc2c(cc1Nc1ncc(Cl)c(Nc3ccc(C#N)cc3OC)n1)CCN(CC(=O)N(C)C)CC2` [Example 1163, 2-{7-[5-Chloro-4-(4-cyano-2-methoxy-phenylamino)-pyrimidin-2-ylamino]-8-methoxy-1,2,4,5-tetrahydro-benzo[d]azepin-3-yl}-N,N-dimethyl-acetamide], in test [2] (setting [4]), the pIC50 is less than 5.00. For `COCCOc1ccc(Nc2nc(Nc3cc4c(cc3OC)CCN(CC(=O)N(C)C)CC4)ncc2Cl)c(OC)c1` [Example 1169, 2-(7-{5-Chloro-4-[2-methoxy-4-(2-methoxy-ethoxy)-phenylamino]-pyrimidin-2-ylamino}-8-methoxy-1,2,4,5-tetrahydro-benzo[d]azepin-3-yl)-N,N-dimethyl-acetamide], the pIC50 in test [2] (setting [4]) was less than 5.00. For `CNC(=O)c1cccc(F)c1Nc1nc(Nc2ccc3c(c2)OCCCN3C(=O)COC)ncc1Cl` [Example 1726, 2-{5-Chloro-2-[9-(2-methoxy-acetyl)-6,7,8,9-tetrahydro-5-oxa-9-aza-benzocyclohepten-3-ylamino]-pyrimidin-4-ylamino}-3-fluoro-N-methyl-benzamide], the pIC50 in test [1] (setting [5]) was 6.00 to 7.00.
